Where two headings read alike, the source gives them in different places. Residues, ends and D or L forms follow the SMILES beside them.
How the values were obtained:
neutrophils = assay: neutrophil chemotaxis to leukotriene B4 (Neuroprobe chambers); format: cell-based; settings: fluorescence at 530 nm, 1 hr; FIGURE 4
Method: The ability of CT-112 (SEQ. ID NO: 1) to inhibit chemotaxis of neutrophils in response to a variety of agents was assessed using Neuroprobe chemotaxis chambers. For these assays, neutrophils were resuspended in Hank's balanced salt solution with Ca^2+ and Mg^2+ to give a 5 x 10^6 cells/ml suspension after the cells were labeled with 1',7'-bis(2-carboxyethyl)-5-(6)-carboxyfluorescein. The neutrophils were exposed to CT-112 (SEQ. ID NO: 1) for approximately 15 min prior to addition to the chemotaxis chambers. CT-112 (SEQ. ID NO: 1) was present in both the top and bottom of the chambers, and the chemoattractant, either f-Met-Leu-Phe, leukotriene B4 or interleukin-8, was added to the bottom of chamber. Cells which had migrated through the membrane were determined by fluorescence at 530 nm at 1 hr after initiation of the assay.

[1] = tested on: collagen-induced arthritis; format: in vivo, Mice
Method: Mice (DBA/1, 10-12 weeks old, Jackson Laboratories) were randomly assigned to one of 3 groups of […]. CT-112 (SEQ. ID NO: 1) was prepared for injection by dissolving in sterile PBS. CT-112 (SEQ. ID NO: 1) was administered daily according to the following schedule: • a) Control animals (0.1 ml of sterile PBS) (7 mice); • b) Low dose CT-112 (0.1 ml sterile PBS containing 0.25 mg CT-112 at 10 mg/kg) (8 mice); and • c) High dose CT-112 (0.1 ml sterile PBS containing 2.5 mg of CT-112 at 100 mg/kg) (8 mice). Three days after initial dosing with CT-112 (SEQ. ID NO: 1), all mice were injected intradermally at the base of the tail with 100 µg of bovine type-II collagen in Freund's complete adjuvant. Mice were monitored daily for the onset of disease, and weighed twice weekly with overall health status noted. Arthritis-affected animals were clinically assessed 5 times per week until 10 weeks post-immunization. Paw measurements were taken 3 times per week. Mice lacking signs of arthritis 10 weeks post-immunization were considered disease-free. All mice were pre-bled prior to the start of the trial, subsequently again at 2 and 4 weeks post-immunization, again at the onset of CIA, and finally at the termination of the study. Sera were separated and stored at -80°C. ELISA assays were performed to determine anti-collagen antibody concentrations. Spleen and lymph nodes were removed at sacrifice, and single cell suspensions prepared therefrom. Mitogen responses to Con A and LPS, as well as antigen-specific responses to type-II collagen, were determined. Appropriate statistical comparisons (Chi square, Student's T-test and non-parametric median comparisons) were performed using SPSS/PC software to assess the influence of CT-112 (SEQ. ID NO: 1) at both low and high doses on the incidence, onset, severity and progression of collagen-induced arthritis, the antibody response to collagen, T-cell and B-cell mitogen responses, and T-cell specific responses to type-II collagen.

[2] = tested on: mouse bone marrow polychromatic erythrocyte; assay: mouse bone marrow polychromatic erythrocyte micronucleus assay; format: in vivo; settings: 62.5, 125 and 250 mg/kg; after 24, 48 or 72 hr

Compound: CC(C)[C@H](NC(=O)[C@H](CCC(N)=O)NC(=O)[C@H](CO)NC(=O)[C@@H](NC(=O)[C@@H](N)[C@@H](C)O)[C@@H](C)O)C(=O)N[C@@H](CCCNC(=N)N)C(=O)N1CCC[C@H]1C(=O)N[C@@H](CCCNC(=N)N)C(=O)O [CT-112, Thr-Thr-Ser-Gln-Val-Arg-Pro-Arg] (H-TTSQVRPR-OH)
- chemotactic migration of neutrophils to LTB4 (neutrophils): effectively inhibited
- Antibody reduction (anti-collagen antibody titer in mouse serum) ([1]; 4 wks post-immunization, high dose group, p=0.028): statistically significant
- effects on synovitis and pannus ([1]; both high and low doses): not significant
- disease-induced joint erosion (histopathology) ([1]; both high and low doses, FIGURE 13): reducing
- disease-induced loss of joint architecture (histopathology) ([1]; both high and low doses, p ≤ 0.05, FIGURE 13): significantly reducing
- Spleen cell response to Con A and to LPS ([1]; cells from treated mice): neither immunosuppression nor immunoactivation
- final incidence of CIA ([1]; high dose, 100 mg/kg daily): 50%
- onset of arthritis ([1]; low (10 mg/kg) and high (100 mg/kg) daily doses, compared to control mice): somewhat retarded
- antibody titers at the conclusion of the trial ([1]; low dose group vs control mice): significantly higher
- final incidence of CIA ([1]; low dose, 10 mg/kg daily): 62.5%
- involved paws characterized as in remission at the conclusion of the trial ([1]; low dose, 10 mg/kg daily): 25%
- progression of arthritis to paws ([1]; low dose, 10 mg/kg daily, p=0.035 vs control): significantly fewer paws
- Maximum paw swelling ([1]; mouse, in vivo): not influenced
- weight gain ([1]; mouse, in vivo): gained weight at the same rate
- Cellular responses to mitogens and antigen (type-II collagen) in lymph node cells ([1]; treated mice vs control animals): similar
- micronuclei [2]: did not induce a significant increase

— patent publication EP0714404B1, “ANTI-INFLAMMATORY PEPTIDES” (CURATIVE TECHNOLOGIES, INC., priority 1993, dated 1995)
